Data from patent US20090018111A1, “Novel Antimicrobial Medicament” (priority 2004, published 2009).
Where two headings read alike, the source gives them in different places.

Experiments:
Test in all cases: Sensitivity test (agar dilution)
K. pneumoniae ATCC10031 = type: cell-based, Klebsiella pneumoniae; conditions: Klebsiella pneumoniae
Procedure: (§1) The antibacterial activities were tested against various 18 bacteria (27 standard strains) which are representative bacteria caused clinically infectious disease (Staphylococcus aureus 3 strains, Staphylococcus epidermidis 1 strain, Micrococcus luteus 1 strain, Streptococcus pyogenes 1 strain, Enterococcus faecalis 1 strain, Enterococcus faecium 1 strain, Bacillus subtilis 1 strain, Escherichia coli 3 strains, Klebsiella pneumoniae 1 strain, Proteus mirabilis 1 strain, Proteus vulgaris 2 strains, Pseudomonas aeruginosa 3 strains, Serratia marcescens 2 strains, Enterobacter aerogenes 1 strain, Stenotrophomonas maltophilia 1 strain, Enterobacter cloacae 1 strain, Citrobacter freundii 1 strain, Moraxella catarrhalis 2 strains).
(§2) According to the standard method of Japan Chemotherapeutic Society (Chemotherapy, vol. […], p 76-79 (1981)) the test was carried out using the agar dilution method. After dissolving test samples in distilled water, agar medium containing the test samples was prepared in such a manner that the final concentration became twice serial dilution by pouring serially diluted combination drug solution or a single drug solution into agar medium. As agar medium was used Mueller Hinton Agar medium (MHA). Then, each strain was cultivated over night at 37° C. in an incubator and suspended in buffered saline solution with gelatin (BSG) in the concentration of about 10^6 CFU/ml. The suspension (about 5 μl) containing test strains was inoculated to the medium containing the test samples by Micro Planter.
(§3) When the sample is subjected to sensitivity test, this mixed solution was diluted by twice serial dilution method.
(§4) Furthermore, when the drug is solely used, each test sample was used as it is, and diluted by twice serial dilution method from the maximum concentration to the minimum concentration.
(§5) FIC index based on MIC value was calculated. […] Namely, when FIC index calculated by the following formula is equal or less than 1, the enhanced effect of the combination drug in said ratio is considered as positive. When FIC index is over 1, the enhanced effect of the combination drug in said ratio is considered as negative.
(§6) Formula of FIC index: FIC index=(MIC of Drug A in combination/MIC of Drug A alone)+(MIC of Drug B in combination/MIC of Drug B alone) N.C. in tables means being not calculated.

E. aerogenes ATCC13048 = type: cell-based, Enterobacter aerogenes; conditions: Klebsiella aerogenes
Procedure: as §1, §2, §3, §4, §5, §6

Str. pyogenes Cook = type: cell-based, Streptococcus pyogenes; conditions: Streptococcus pyogenes
Procedure: as §1, §2, §3, §4, §5, §6

S. maltophilia IID1275 = type: cell-based, Stenotrophomonas maltophilia; conditions: Stenotrophomonas maltophilia
Procedure: as §1, §2, §3, §4, §5, §6

C[C@H]1C=C(c2csc(SC3=C(C(=O)O)N4C(=O)[C@H]([C@@H](C)O)[C@H]4[C@H]3C)n2)CN1 [SM, (4R,5S,6S)-6-[(1R)-1-Hydroxyethyl]-4-methyl-3-({4-[(5S)-5-methyl-2,5-dihydro-1H-pyrrol-3-yl]-1,3-thiazol-2-yl}sulfanyl)-7-oxo-1-azabicyclo[3.2.0]hept-2-ene-2-carboxylic acid]
MIC (K. pneumoniae ATCC10031; ATCC10031, Concomitant (MEPM:SM = 1:4), read-out: MIC): ≤ 0.063 mg/L
MIC (K. pneumoniae ATCC10031; ATCC10031, Concomitant (PAPM:SM = 1:1), K. pneumoniae ATCC10031, read-out: MIC concomitant): 0.016 mg/L
MIC (K. pneumoniae ATCC10031; ATCC10031, Concomitant (PIPC:SM = 1:1), K. pneumoniae ATCC10031, read-out: MIC concomitant): 0.016 mg/L
MIC (K. pneumoniae ATCC10031; ATCC10031, Concomitant drug (MEPM:SM = 2:1), read-out: MIC): ≤ 0.008 mg/L
MIC (E. aerogenes ATCC13048; ATCC13048, Concomitant (AZT:SM = 1:1), E. aerogenes ATCC13048, read-out: MIC concomitant): 8 mg/L
MIC (E. aerogenes ATCC13048; ATCC13048, Concomitant (BIPM:SM = 1:1), E. aerogenes ATCC13048, read-out: MIC concomitant): 0.063 mg/L
MIC (E. aerogenes ATCC13048; ATCC13048, Concomitant (CAZ:SM = 1:1), E. aerogenes ATCC13048, read-out: MIC concomitant): 8 mg/L
MIC (E. aerogenes ATCC13048; ATCC13048, Concomitant (CPFX:SM = 1:1), E. aerogenes ATCC13048, read-out: MIC concomitant): 0.031 mg/L
MIC (E. aerogenes ATCC13048; ATCC13048, Concomitant (DRPM:SM = 1:1), E. aerogenes ATCC13048, read-out: MIC concomitant): 0.031 mg/L
MIC (E. aerogenes ATCC13048; ATCC13048, Concomitant (IPM:SM = 1:1), read-out: MIC): 0.125 mg/L
MIC (E. aerogenes ATCC13048; ATCC13048, Concomitant (MEPM:SM = 1:1), read-out: MIC): ≤ 0.016 mg/L
MIC (E. aerogenes ATCC13048; ATCC13048, Concomitant (MEPM:SM = 1:2), read-out: MIC): 0.063 mg/L
MIC (E. aerogenes ATCC13048; ATCC13048, Concomitant (MEPM:SM = 1:4), read-out: MIC): 0.125 mg/L
MIC (E. aerogenes ATCC13048; ATCC13048, Concomitant (PAPM:SM = 1:1), E. aerogenes ATCC13048, read-out: MIC concomitant): 0.25 mg/L
MIC (E. aerogenes ATCC13048; ATCC13048, Concomitant (PIPC:SM = 1:1), E. aerogenes ATCC13048, read-out: MIC concomitant): 8 mg/L
MIC (E. aerogenes ATCC13048; ATCC13048, Concomitant drug (MEPM:SM = 2:1), read-out: MIC): 0.016 mg/L
MIC (E. aerogenes ATCC13048; ATCC13048, alone, read-out: MIC): 8 mg/L
MIC (E. aerogenes ATCC13048; ATCC13048, drug alone, E. aerogenes ATCC13048, read-out: MIC alone): 8 mg/L
MIC (Str. pyogenes Cook; Concomitant (AZT:SM = 1:1), Str. pyogenes Cook, read-out: MIC concomitant): 0.004 mg/L
MIC (Str. pyogenes Cook; Concomitant (BIPM:SM = 1:1), Str. pyogenes Cook, read-out: MIC concomitant): 0.004 mg/L
MIC (Str. pyogenes Cook; Concomitant (CAZ:SM = 1:1), Str. pyogenes Cook, read-out: MIC concomitant): 0.004 mg/L
MIC (Str. pyogenes Cook; Concomitant (CPFX:SM = 1:1), Str. pyogenes Cook, read-out: MIC concomitant): 0.004 mg/L
MIC (Str. pyogenes Cook; Concomitant (DRPM:SM = 1:1), Str. pyogenes Cook, read-out: MIC concomitant): ≤ 0.002 mg/L
MIC (Str. pyogenes Cook; Concomitant (IPM:SM = 1:1), read-out: MIC): ≤ 0.002 mg/L
MIC (Str. pyogenes Cook; Concomitant (MEPM:SM = 1:1), read-out: MIC): ≤ 0.016 mg/L
MIC (Str. pyogenes Cook; Concomitant (MEPM:SM = 1:2), read-out: MIC): ≤ 0.031 mg/L
MIC (Str. pyogenes Cook; Concomitant (MEPM:SM = 1:4), read-out: MIC): ≤ 0.063 mg/L
MIC (Str. pyogenes Cook; Concomitant (PAPM:SM = 1:1), Str. pyogenes Cook, read-out: MIC concomitant): ≤ 0.002 mg/L
MIC (Str. pyogenes Cook; Concomitant (PIPC:SM = 1:1), Str. pyogenes Cook, read-out: MIC concomitant): ≤ 0.002 mg/L
MIC (Str. pyogenes Cook; Concomitant drug (MEPM:SM = 2:1), read-out: MIC): ≤ 0.008 mg/L
MIC (Str. pyogenes Cook; alone, read-out: MIC): ≤ 0.008 mg/L
MIC (Str. pyogenes Cook; drug alone, Str. pyogenes Cook, read-out: MIC alone): 0.004 mg/L
MIC (S. maltophilia IID1275; IID1275, Concomitant (AZT:SM = 1:1), S. maltophilia IID1275, read-out: MIC concomitant): > 32 mg/L
MIC (S. maltophilia IID1275; IID1275, Concomitant (BIPM:SM = 1:1), S. maltophilia IID1275, read-out: MIC concomitant): > 32 mg/L
MIC (S. maltophilia IID1275; IID1275, Concomitant (CAZ:SM = 1:1), S. maltophilia IID1275, read-out: MIC concomitant): > 32 mg/L
MIC (S. maltophilia IID1275; IID1275, Concomitant (CPFX:SM = 1:1), S. maltophilia IID1275, read-out: MIC concomitant): 1 mg/L
MIC (S. maltophilia IID1275; IID1275, Concomitant (DRPM:SM = 1:1), S. maltophilia IID1275, read-out: MIC concomitant): > 32 mg/L
MIC (S. maltophilia IID1275; IID1275, Concomitant (IPM:SM = 1:1), read-out: MIC): > 32 mg/L
MIC (S. maltophilia IID1275; IID1275, Concomitant (MEPM:SM = 1:1), read-out: MIC): > 32 mg/L
MIC (S. maltophilia IID1275; IID1275, Concomitant (MEPM:SM = 1:2), read-out: MIC): > 64 mg/L
MIC (S. maltophilia IID1275; IID1275, Concomitant (MEPM:SM = 1:4), read-out: MIC): > 128 mg/L
MIC (S. maltophilia IID1275; IID1275, Concomitant (PAPM:SM = 1:1), S. maltophilia IID1275, read-out: MIC concomitant): > 32 mg/L
MIC (S. maltophilia IID1275; IID1275, Concomitant (PIPC:SM = 1:1), S. maltophilia IID1275, read-out: MIC concomitant): > 32 mg/L
MIC (S. maltophilia IID1275; IID1275, Concomitant drug (MEPM:SM = 2:1), read-out: MIC): > 16 mg/L
MIC (S. maltophilia IID1275; IID1275, drug alone, S. maltophilia IID1275, read-out: MIC alone): > 32 mg/L
